Key:
Type in all cases: functional
[1] = Growth inhibition of Homo sapiens (human) H460 cells after 48 hr by MTT assay; conditions: NCI-H460, 48 h
[2] = Growth inhibition of Homo sapiens (human) SKHep cells after 48 hr by MTT assay
[3] = test system: HeLa; assay: Growth inhibition of Homo sapiens (human) HeLa cells after 48 hr by MTT assay
[4] = test system: OVCAR; assay: Growth inhibition of Homo sapiens (human) OVCAR cells after 48 hr by MTT assay
[5] = test system: AGS; assay: Growth inhibition of Homo sapiens (human) AGS cells after 48 hr by MTT assay
[6] = test system: PC-3; assay: Growth inhibition of Homo sapiens (human) PC3 cells after 48 hr by MTT assay; conditions: PC-3, 48 h
[7] = test system: SW-620; assay: Growth inhibition of Homo sapiens (human) SW620 cells after 48 hr by MTT assay; conditions: SW-620, 48 h

| Structure (SMILES) | GI50 [1] [nM] | GI50 [2] [nM] | GI50 [3] [nM] | GI50 [4] [nM] | GI50 [5] [nM] | GI50 [6] [nM] | GI50 [7] [nM] |
| --- | --- | --- | --- | --- | --- | --- | --- |
| O=c1cc(/C=C/c2ccc3c(c2)OCO3)oc2ccccc12 | > 40000 | > 40000 | 14000 | > 40000 | > 40000 | – | – |
| O=c1cc(/C=C/c2ccccc2)oc2ccccc12 | > 40000 | > 40000 | 25000 | 21000 | > 40000 | – | – |
| COc1cccc2c1C(=O)c1c(O)c3c(c(O)c1C2=O)C[C@@](O)(C(=O)CO)C[C@@H]3O[C@H]1C[C@H](N)[C@H](O)[C@H](C)O1 [DOXORUBICIN] | 110 | 90 | 330 | 950 | 20 | 1760 | 30 |

From ChEMBL document CHEMBL3045085, “Structureactivity relationship study of growth inhibitory 2-styrylchromones against carcinoma cells” (2013)
